We go through one molecule from US11292807B2 (OCEANS LTD., priority 2015, dated 2022).

The structures appear in SMILES notation. Like-named read-outs stand apart in the source and are kept apart here.

The data set has as its system SKOV3 (ovarian adenocarcinoma). Conditions: human, 72 h.

On to `CC/C=C\C/C=C\C/C=C\C/C=C\C/C=C\CCCC(=O)OCC(COC1OC(CO)C(O)C(O)C1O)OC(=O)CCCCCCCCCCCCCCC` (centres unmarked) [Compound 2, MGDG C20:5/C16:0], for which the Average cell viability (10 ug/mL) is 94% and the Average cell viability (50 ug/mL) turned out to be 62%.
